# Values joined by “and” are separate entries in the source; they are usually repeats but may differ in a detail not shown here. Equal entries are not always repeated.
# How the values were obtained:
# Aβ (1-42) = target: T1, Aβ (1-42) (Homo sapiens, UniProt P05067); assay: BATYM assay (Aβ (1-42) aggregation, Thioflavin T fluorescence); assay type: biochemical; settings: Aβ 1-42 final concentration 100 μM, 37° C., 1 day, letter = synthetic lot
# T1 construct: Required Aβ (1-42) (California Peptide) was dried from its hexafluoroisopropanol (HFIP) stock solution; purchased California Peptide
# How it was run: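 Aβ (1-42) (100 μM final, PBS pH 7.4 from DMSO) incubated with compound at 37° C. for 1 day. Aggregation read by ThT (30 μM, glycine-NaOH pH 8.5) fluorescence, ex 440/em 485 nm; inhibition as fluorescence reduction corrected for compound-alone signal, IC50 by curve fitting from two experiments in triplicate.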
# Aβ(1-40) [1] = target: T2, Aβ(1-40) (Homo sapiens, UniProt P05067); assay: BASST (Beta-Amyloid Self-Seeding, Thioflavin T), inhibitors of self-seeded amyloid fibril growth; assay type: biochemical; settings: 30 μM soluble Aβ(1-40), 37° C., 3 to 5 hours, thioflavin T fluorescence; replicate values; letter = synthetic lot; read-out: BASST (IC50 = μM)
# T2 construct: […]; purchased Bachem, Torrance, Calif
# How it was run: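 Self-seeded Aβ(1-40) fibril growth was run in 50 mM sodium phosphate pH 7.5, 100 mM NaCl, 0.02% NaN3, 1 M urea. Compounds were tested in 3-fold serial dilutions (top 100 μM final): 10 min on ice, then 3–5 h at 37 °C. Fibrils were read by 5 μM thioflavin T fluorescence (ex 440/em 485 nm).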
# Aβ (1-40) peptide = target: T3, Aβ (1-40) peptide (Homo sapiens, UniProt P05067); assay: BAPA (Beta-Amyloid Peptide Aggregation, pH 6.0, filtration); assay type: biochemical; settings: Aβ (1-40) 33 μM, pH 6.0, 2 to 4 hours at room temperature; replicate values; letter = synthetic lot
# T3 construct: 10 μL 0.5 mg/mL Aβ (1-40) peptide in 20% HFIP
# How it was run: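 Aggregation of human Aβ (1-40) peptide was measured in an endpoint filtration assay. The peptide was first reduced to monomer with hexafluoroisopropanol (HFIP), then used at 33 μM so it would aggregate at pH 6.0, and incubated for 2 to 4 hours at room temperature. Filter plates were washed with 100 μL phosphate buffer, impregnated with Meltilex, and counted on a Microbeta counter with background correction.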
# Aβ(1-40) [2] = target: T2, Aβ(1-40); assay: BASSR (Beta-Amyloid Self-Seeding Radioassay), inhibitors of self-seeded amyloid fibril growth; assay type: biochemical; settings: 30 μM soluble Aβ(1-40) + 125I-labeled Aβ(1-40), 37° C., 3 to 5 hours; replicate values; letter = synthetic lot; ppt = precipitate; V-shaped = inhibition followed by precipitation
# How it was run: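 Self-seeded growth of ^125I-labeled Aβ(1-40) fibrils in 50 mM sodium phosphate pH 7.5, 100 mM NaCl, 0.02% NaN3, 1 M urea; compound (3-fold dilutions from 100 μM final) preincubated 10 min on ice, then 3–5 h at 37° C. Fibrils collected by vacuum filtration on 0.2 μm filters and counted for radioactivity.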
# T2 sequence (P05067 672-711 limits assumed): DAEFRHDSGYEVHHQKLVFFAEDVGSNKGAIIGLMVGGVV
# T3 sequence (P05067 672-711 limits assumed): as above
# T1 sequence (P05067 672-713 limits assumed): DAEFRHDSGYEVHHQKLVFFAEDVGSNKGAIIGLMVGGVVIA
Structure (SMILES),melting point [°C],IC50 (Aβ (1-42)),IC50 (Aβ(1-40) [1]),IC50 (Aβ (1-40) peptide),IC50 (Aβ(1-40) [2])
"O=C(O)c1ccccc1Nc1ccc(CCCc2cccc([N+](=O)[O-])c2)cc1 [Example 21, 2-{4-[3-(3-Nitrophenyl)propyl]phenylamino}benzoic acid]",164 to 167,62.7 µM,4 µM,26 µM,3 µM
"O=C(O)c1ccccc1Nc1cccc(CCc2ccc(Cl)cc2)c1 [Example 123, 2-{3-[2-(4-Chloro-phenyl)-ethyl]-phenylamino}-benzoic acid]",155 to 157,70.8 µM and 85.2 µM,–,> 60 µM,–
"O=C(O)c1ccccc1Nc1ccc(CCc2ccccc2Cl)cc1 [Example 126, 2-{4-[2-(2-Chloro-phenyl)-ethyl]-phenylamino}-benzoic acid]",140 to 143,84 µM and 73.9 µM,4 µM (2×) and 5 µM and 10 µM,63 µM and > 60 µM,> 100 µM (2×) and 30 µM
"O=C(O)c1cc([N+](=O)[O-])ccc1Nc1ccc(CCc2ccc(F)c(F)c2)cc1 [Example 67, 2-{4-[2-(3,4-Difluoro-phenyl)-ethyl]-phenylamino}-5-nitro-benzoic acid]",203 to 208,13.3 µM,4 µM,> 60 µM,41 µM
"O=C(O)c1ccccc1Nc1ccc(CCc2ccc(O)c(O)c2)cc1 [Example 4, 2-{4-[2-(3,4-Dihydroxy-phenyl)-ethyl]-phenylamino}benzoic acid]",215 to 217,26.3 µM and 30.7 µM,3 µM and 4 µM and 8 µM,67 µM,30 µM and > 100 µM
"O=C(O)c1ccccc1Nc1ccc(CCc2ccc(F)c(C(F)(F)F)c2)cc1 [Example 66, 2-{4-[2-(4-Fluoro-3-trifluoromethyl-phenyl)-ethyl]-phenylamino}-benzoic acid]",148 to 150,50.1 µM,2.1 µM,> 100 µM,> 100 µM
"O=C(O)c1ccccc1Nc1ccc(CCc2ccc(Cl)cc2Cl)cc1 [Example 130, 2-{4-[2-(2,4-Dichloro-phenyl)-ethyl]-phenylamino}-benzoic acid]",181 to 183,47.5 µM,–,238 µM,> 100 µM
"Cc1ccc(Nc2ccc(CCCc3ccc(Cl)c(Cl)c3)cc2)c(C(=O)O)c1 [Example 59, 2-{4-[3-(3,4-Dichloro-phenyl)propyl]phenylamino}-5-methyl-benzoic acid]",98 to 99,> 100 µM,> 100 µM,3 µM,> 100 µM
"COc1cc(CCc2ccc(Nc3ccccc3C(=O)O)cc2)cc(OC)c1OC [Example 133, 2-{4-[2-(3,4,5-Trimethoxy-phenyl)-ethyl]-phenylamino}-benzoic acid]",146 to 147,> 100 µM,> 100 µM,> 60 µM,> 100 µM
"CCCCN1CCCc2cc(C=C3SC(=S)N(CC(=O)O)C3=O)ccc21 [Example 55, {5-[(1-Butyl-1,2,3,4-tetrahydro-6-quinolyl)methylidene]-4-oxo-2-thioxothiazolidin-3-yl}acetic acid]",222 to 224,5.1 µM,2 µM,101 µM,12 µM
"O=C(O)c1ccc(Nc2ccc(CCc3ccc(Cl)c(Cl)c3)cc2)c(C(=O)O)c1 [Example 144, 4-{4-[2-(3,4-Dichloro-phenyl)-ethyl]-phenylamino}-isophthalic acid]",264 to 266,> 100 µM,40 µM,114 µM,15 µM and 25 µM
"COc1ccc(CCc2ccc(Nc3ccccc3C(=O)O)cc2)cc1OC [Example 116, 2-{4-[2-(3,4-Dimethoxy-phenyl)-ethyl]-phenylamino}-benzoic acid]",159 to 161,–,18 µM and 30 µM,96 µM,> 100 µM
"O=C(O)c1ccccc1Nc1ccc(-c2cc(Cl)cc(Cl)c2)cc1 [Example 137, 2-(3′,5′-Dichloro-biphenyl-4-ylamino)-benzoic acid]",> 220,–,3 µM,52 µM,> 100 µM
"CC(=O)Nc1ccc(CCc2ccc(Nc3ccccc3C(=O)O)cc2)cc1 [Example 35, 2-{4-[2-(4-Acetylaminophenyl)ethyl]phenylamino}benzoic acid]",224,> 100 µM,–,154 µM,> 100 µM
"CCCCN(CCCC)c1ccc(CCc2ccc(Nc3ccc([N+](=O)[O-])cc3C(=O)O)cc2)cc1 [Example 79, 2-{4-[2-(4-Dibutylamino-phenyl)-ethyl]-phenylamino}-5-nitro-benzoic acid]",> 260,9.14 µM,1 µM and 300 nM (3×),51 µM,–
"O=C(O)c1cc(F)ccc1Nc1ccc(CCc2ccc(Cl)c(Cl)c2)cc1 [Example 71, 2-{4-[2-(3,4-Dichloro-phenyl)-ethyl]-phenylamino}-5-fluoro-benzoic acid]",180 to 182,–,3 µM,> 60 µM,> 100 µM
"O=C(O)c1ccccc1Nc1ccc(CCc2ccc(-c3ccccc3)cc2)cc1 [Example 129, 2-[4-(2-Biphenyl-4-yl-ethyl)-phenylamino]-benzoic acid]",200 to 202,> 100 µM,10 µM and 3 µM and 2 µM (2×),> 102 µM,–
"O=C(O)c1cc([N+](=O)[O-])ccc1Nc1ccc(CCc2ccc(Cl)cc2Cl)cc1 [Example 77, 2-{4-[2-(2,4-Dichloro-phenyl)-ethyl]-phenylamino}-5-nitro-benzoic acid]",200.5 to 202.5,9.49 µM,–,> 60 µM,18 µM and 15 µM
"Cc1ccc(CCc2ccc(Nc3ccc([N+](=O)[O-])cc3C(=O)O)cc2)cc1C [Example 16, 2-{4-[2-(3,4-Dimethyl-phenyl)-ethyl]phenylamino}-5-nitrobenzoic acid]",214 to 216,12 µM and 10.3 µM,3 µM (2×) and 1.1 µM and 800 nM and 600 nM,13 µM,–
"CCN(CC)C(=O)c1ccc(CCCc2ccc(Nc3ccccc3C(=O)O)cc2)cc1 [Example 48, 2-{4-[3-(4-Diethylcarbamoylphenyl)propyl]phenylamino}benzoic acid]",57 to 62,> 100 µM,10 µM,–,25 µM
"CCCCN1CCCc2cc(C=C3SC(=S)N(CCC(=O)O)C3=O)ccc21 [Example 57, 3-{5-[(1-Butyl-1,2,3,4-tetrahydroquinolin-6-yl)methylidene]-4-oxo-2-thioxo-thiazolidin-3-yl)propanoic acid]",214 to 215,4 µM,1.5 µM,–,4.8 µM
"O=C(O)c1ccc(CCCc2ccc(Nc3ccccc3C(=O)O)cc2)cc1 [Example 49, 2-{4-[3-(4-Carboxyphenyl)propyl]phenylamino}benzoic acid]",236 to 239,> 100 µM,> 100 µM,–,> 100 µM
"O=C(O)c1ccccc1Nc1ccc(CCCc2ccc(-n3cccc3)cc2)cc1 [Example 46, 2-(4-{3-[4-(1H-Pyrrol-1-yl)phenyl]propyl}phenylamino)benzoic acid]",131 to 136,34.3 µM,6 µM,–,> 100 µM
"O=C(O)c1ccccc1Nc1ccc(CCc2cccc(Cl)c2)cc1 [Example 128, 2-{4-[2-(3-Chloro-phenyl)-ethyl]-phenylamino}-benzoic acid]",152 to 154,75 µM and > 60 µM,–,> 60 µM,–
"CCN(CC)c1ccc(Nc2ccc(CCc3ccc(Cl)c(Cl)c3)cc2)c(C(=O)O)c1 [Example 151, 2-{4-[2-(3,4-Dichloro-phenyl)-ethyl]-phenylamino}-5-diethylamino-benzoic acid]",106 to 110,> 100 µM,–,108 µM,> 100 µM
"CCN(CC)Cc1ccc(CCCc2ccc(Nc3ccccc3C(=O)O)cc2)cc1 [Example 50, 2-{4-[3-(4-Diethylaminomethylphenyl)propyl]phenylamino}benzoic acid]",137,> 100 µM,> 100 µM,–,> 100 µM

# Source: patent publication US6972287B1, “Method of inhibiting amyloid protein aggregation and imaging amyloid deposits” (Pfizer Inc., priority 1999, dated 2005)
